Data published in patent publication US4284786A, “5-Methylisoxazole-4-carboxylic-(4-trifluoromethyl)-anilide” (priority 1978, dated 1981).
Like-named read-outs stand apart in the source and are kept apart here.

Legend:
[1] = system: allergic encephalomyelitis; experiment: Allergic encephalomyelitis (Levine); format: in vivo, male rats, Wistar-Lewis strain; conditions: for Allergic encephalomyelitis (3) % inhibition: days 1-12, index on 11th day
Experimental: Known non-steroid antiphlogistic agents are here at most very slightly active.
The investigations were carried out by the method of Levine (Arch.int.Pharmacodyn. 230, 309 (1977)). The experimental animals used were male rats of a Wistar-Lewis strain having a body weight of between 180 and 220 g. The encephalomyelitis was induced by injection of complete Freund adjuvant to which freshly withdrawn homogenized rat spinal marrow extract and Bordetella pertussis vaccine had been added. The compounds to be compared were administered orally once a day from the 1st to the 12th day. For each dose, and for the control group, a group of 10 animals was used. From the 7th day of the experiment, the paralysis symptoms were grouped together daily in one index with the mortality and the change of body weight. […]
loss of 20 g of body weight in each case: 1 point […]
hindquarters paralysis: 3 points paralysis of the entire body: 5 points
The assessment criterion was the percentage inhibition of the index compared to untreated control animals on the 11th day of the experiment. On conclusion of the experiment, blood was taken from the surviving animals to determine the erythrocyte count and leucocyte count as well as the hematocrit.

in vivo [2] = experiment: in vivo; set-up: species or system male Sprague-Dawley rats; conditions: rat, in vivo; for selectivity ratio: acute UD50 / ED50, read-out: Therapeutic index acute UD50/ED50
Experimental: (§1) The investigations were carried out in groups of 10 male Sprague-Dawley rats having a body weight of 200-300 g. 48 hours before administration of the compounds to be compared, and up to the time of killing the animals, food was withheld, but there was free access to drinking water. The rats were killed 24 hours after oral administration, and the stomach was removed under running water and inspected for lesions of the mucous membrane. All macroscopically visible lesions were rated as ulcers.

rats = experiment: in vivo; conditions: oral toxicity, relative to compound B
Experimental: (§2) The acute toxicity were determined by standard methods on NMRI mice and on rats of the Wister and Sprague-Dawley strains. 6 animals were used per dose. The LD50 values were determined by the method of Litchfield and Wilcoxon.

in vivo [3] = conditions: rat, in vivo, po
Experimental: as §2

adjuvant arthritis [4] = experiment: Adjuvant arthritis, preventive experiment (Pearson); format: in vivo, male rats, Wistar-Lewis strain; conditions: for ED50: Rattus norvegicus, oral, daily days 1-17, reduction in paw volume increase
Experimental: (§3) The investigations were carried out by the method of Pearson (Arthrit.Rheum. 2, 440 (1959)). The experimental animals used were male rats of a Wistar-Lewis strain, having a body weight of between 130 and 200 g. The compounds to be compared were administered orally, daily from the 1st to the 17th day of the experiment. Animals of the control group were given the solvent only. For each dosage, and in the control group, a group of 8 animals was used. The criterion of the activity was the reduction in the paw volume increase compared to the untreated control group. The ED50 values were determined graphically from the dose/effect curve.

[5] = Acute toxicity, intraperitoneal administration to mice; set-up: species or system NMRI mice; conditions: mouse, in vivo, ip
Excerpt: (§4) 6 animals were used per dose.

adjuvant arthritis [6] = experiment: Adjuvant arthritis, Perper modification; format: in vivo, male rats, Wistar-Lewis strain; conditions: for ED50: Rattus norvegicus, 504 h, oral, days 1-12, paw volume on 21st day, read-out: Adjuvant arthritis Perper (2) ED50; for Adjuvant arthritis Perper (2) ED50: result in words
Experimental: as §3
The experimental animals and experimental methods were as under 1., but the animals were only treated from the 1st to the 12th day of the experiment; after a treatment-free interval of 9 days, the paw volume was determined on the 21st day.

stomach mucous membrane [7] = experiment: Sub-acute ulcerogenic action; format: in vivo, male Sprague-Dawley rats; conditions: sub-acute, relative to compound B
Experimental: as §1, with “ulcers. The proportion of animals with ulcers at each dose was determined, as was the UD50 using the method of Litchfield and Wilcoxon (J.Pharmacol.exp.Ther. 96, 99 (1949)).” for “ulcers.”
(§5) The experimental animals and the experimental method were as under 4, with the following modification: the compounds to be compared were administered orally once daily for 4 days to normally fed rats and the animals were killed on the 5th day, after food had been withheld for 24 hours. According to Shriver, this method gives more informative results than a single administration, since medicamentous therapy of rheumatic patients also requires repeated treatment (Toxicology and Appl. Pharmacology 32, 73 (1975)).

[8] = Sub-acute ulcerogenic action; format: in vivo, male Sprague-Dawley rats; conditions: rat, in vivo, po; sub-acute UD50 / ED50; read-out: Therapeutic index sub-acute UD50/ED50
Experimental: as §1, with “ulcers. The proportion of animals with ulcers at each dose was determined, as was the UD50 using the method of Litchfield and Wilcoxon (J.Pharmacol.exp.Ther. 96, 99 (1949)).” for “ulcers.”
as §5

stomach mucous membrane [9] = experiment: in vivo; set-up: species or system male Sprague-Dawley rats; conditions: single oral dose, fasted rats, 24 hours
Experimental: as §1

[10] = Acute toxicity, oral administration, mice; conditions: mouse, in vivo; for selectivity ratio: oral LD50 in mice / ED50, read-out: Therapeutic index LD50/ED50
Excerpt: as §4

[11] = in the therapeutic dosage range

SMILES	Allergic encephalomyelitis (3) % inhibition ([1]; dose 10 mg/kg oral)	TD50 at 24 h (in vivo [2]; po)	selectivity ratio (in vivo [2]; po)	LD50 (in vivo [3])	selectivity ratio (in vivo [3])	ED50 (adjuvant arthritis [4])	LD50 [5]	ED50 (adjuvant arthritis [6])	selectivity ratio [8]	selectivity ratio [10]	Adjuvant arthritis Perper (2) ED50 (adjuvant arthritis [6]; up to 20.0 (mg/kg))	other results
Cc1oncc1C(=O)Nc1ccc(C(F)(F)F)cc1 [compound A, 5-Methylisoxazole-4-carboxylic acid 4-trifluoromethyl-anilide]	100%	57 mg/kg	25	235 mg/kg	100	2.3 mg/kg	150 to 300 mg/kg	4.5 mg/kg	33			inhibition of immunopathological processes, allergic encephalomyelitis test [1, 11]: inhibits immunopathological processes; 100% inhibition of the paralysis symptoms in allergic encephalomyelitis without gastro-intestinal bleeding ([1]; rat, in vivo): possible; therapeutic range (LD50/ED50) times greater than that of compound B (rats): 2.4 times; activity times greater than that of compound B (adjuvant arthritis [4]; ED50, adjuvant arthritis, preventive, relative to compound B): 6.5 times; inhibition of immunopathological processes, Perper adjuvant arthritis test (adjuvant arthritis [6]; [11]): inhibits immunopathological processes; therapeutic index (UD50/ED50; sub-acute) times greater than that of compound B (stomach mucous membrane [7]): 4.1 times
Cc1oncc1C(=O)Nc1ccc(F)cc1 [compound B, 5-methylisoxazole-4-carboxylic acid 4-fluoroanilide]			17	620 mg/kg	41	15 mg/kg	200 to 400 mg/kg	25 mg/kg	8			Allergic encephalomyelitis (3) % inhibition ([1]; dose 25 mg/kg oral): 43%; Allergic encephalomyelitis (3): finding printed in the % inhibition column ([1]; dose 50 mg/kg oral): anaemia; Ulcerogenic character acute UD50 (stomach mucous membrane [9]): 250 mg/kg
Cc1oncc1C(=O)Nc1cccc(C(F)(F)F)c1 [compound C, 5-methylixoazole-4-carboxylic acid 3-trifluoromethylanilide]	0%	~600 mg/kg	< 12			> 50 mg/kg	100 to 250 mg/kg			< 15	inactive	LD50 ([10]; po): 740 mg/kg
Cc1oncc1C(=O)Nc1cc(C(F)(F)F)cc(C(F)(F)F)c1 [compound D, 5-methylisoxazole-4-carboxylic acid 3,5-bis-trifluoromethylanilide]			~2			~50 mg/kg	> 500 mg/kg	> 50 mg/kg		50		TD50 at 24 h (in vivo [2]; single oral dose, fasted rats, 24 hours, read-out: Ulcerogenic character acute UD50): 100 mg/kg
Cc1oncc1C(=O)Nc1ccccc1C(F)(F)F [compound E, 5-methylisoxazole-4-carboxylic acid 2-trifluoromethylanilide]	0%	350 mg/kg	< 7			> 50 mg/kg	300 to 6000 mg/kg				inactive	
CCCCC1C(=O)N(c2ccccc2)N(c2ccccc2)C1=O [compound F, phenylbutazone]						37 mg/kg						Allergic encephalomyelitis (3) % inhibition ([1]; dose 75 mg/kg oral): 0%; Adjuvant arthritis Perper (2) ED50 (adjuvant arthritis [6]; up to 75 (mg/kg)): inactive
